Activity calls are given as the source filed them. No cut-off for these calls is given here.
Experiments:
[1] = Antiproliferative activity against human HCC827 cells harboring EGFR E746 to A750 deletion mutant assessed as reduction in cell viability after 72 hrs by MTT assay; assay type: functional, cell-based; settings: HCC827, 72 h
[2] = biological target: Epidermal growth factor receptor (Homo sapiens, UniProt P00533);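 note: recombinant wild-type human EGFR cytoplasmic domain, inhibition measured as decrease in autophosphorylation via Z'-Lyte readout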
Description: Inhibition of wild type recombinant human EGFR assessed as reduction in autophosphorylation of cytoplasmic domain by Z'-Lyte assay

A549 = test: cells; assay type: functional, cell-based; settings: Homo sapiens, A549, 72 h
Description: Antiproliferative activity against human A549 cells harboring K-ras mutation assessed as reduction in cell viability after 72 hrs by MTT assay

[3] = biological target: Epidermal growth factor receptor (Homo sapiens, UniProt P00533, L858R/T790M); assay type: protein assay;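 note: recombinant enzyme, cytoplasmic domain autophosphorylation read out by Z'-Lyte assay, IC50 reflects decrease in autophosphorylation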
Description: Inhibition of recombinant human EGFR L858R/T790M double mutant assessed as reduction in autophosphorylation of cytoplasmic domain by Z'-Lyte assay

A-431 = test: cells; assay type: functional, cell-based; settings: Homo sapiens, A-431, 72 h;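 note: loss of viability in A431 cells carrying wild-type EGFR, read out by MTT, antiproliferative effect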
Description: Antiproliferative activity against human A431 cells harboring wild type EGFR assessed as reduction in cell viability after 72 hrs by MTT assay

NCI-H1975 [4] = test: cells; assay type: functional, cell-based; settings: Homo sapiens, NCI-H1975, 72 h
Description: Antiproliferative activity against human NCI-H1975 cells harboring EGFR L858R/T790M double mutant assessed as reduction in cell viability after 72 hrs by MTT assay

MCF7 = test: cells; assay type: functional, cell-based; settings: Homo sapiens, MCF7, 72 h;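 note: antiproliferative effect measured by MTT assay in EGFR-overexpressing MCF7 cells, with IC50 based on the drop in viable cells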
Description: Antiproliferative activity against human MCF7 cells overexpressing EGFR assessed as reduction in cell viability after 72 hrs by MTT assay

[5] = test system: Epidermal growth factor receptor (Homo sapiens), P00533 [L858R,T790M]; test: Potency index, ratio of gefitinib IC50 to compound IC50 for inhibition of recombinant human EGFR L858R/T790M double mutant; assay type: protein assay
NCI-H1975 [6] = test: Effect on total EGFR L858R/T790M double mutant level in human NCI-H1975 cells at 0.1 to 10 uM after 12 hrs by Western blot analysis; assay type: ADME, cell-based; settings: nci-h1975, 12 h
[7] = test system: Epidermal growth factor receptor (Homo sapiens), P00533 [L858R,T790M]; settings: NCI-H1975, at 1 µM
Description: Inhibition of EGFR L858R/T790M double mutant in human NCI-H1975 cells assessed as reduction in phosphorylated AKT level at 1 uM after 12 hrs by Western blot analysis

NCI-H1975 [8] = test: Effect on total beta-actin level in human NCI-H1975 cells at 0.1 to 10 uM after 12 hrs by Western blot analysis; assay type: ADME, cell-based; settings: nci-h1975, 12 h
NCI-H1975 [9] = test: Potency index, ratio of gefitinib IC50 to compound IC50 for antiproliferative activity against human NCI-H1975 cells harboring EGFR L858R/T790M double mutant; assay type: functional
[10] = test system: Epidermal growth factor receptor (Homo sapiens), P00533 [L858R,T790M]; test: Inhibition of EGFR L858R/T790M double mutant autophosphorylation in human NCI-H1975 cells after 12 hrs by Western blot analysis; assay type: cell-based
NCI-H1975 [11] = test: Effect on total AKT level in human NCI-H1975 cells at 0.1 to 10 uM after 12 hrs by Western blot analysis; assay type: ADME, cell-based; settings: nci-h1975, 12 h

| SMILES | IC50 [1] [µM] | IC50 [2] [µM] | IC50 (A549) [µM] | IC50 [3] [µM] | IC50 (A-431) [µM] | IC50 (NCI-H1975 [4]) [µM] | IC50 (MCF7) [µM] | Ratio IC50 [5] | Activity (NCI-H1975 [6]) | inhibition [7] | Activity (NCI-H1975 [8]) | Ratio IC50 (NCI-H1975 [9]) | inhibition [10] | Activity (NCI-H1975 [11]) |
| --- | --- | --- | --- | --- | --- | --- | --- | --- | --- | --- | --- | --- | --- | --- |
| COCCOc1cc2ncnc(Nc3ccc(NC(=O)C45CC6CC(CC(C6)C4)C5)c(C)c3)c2cc1OCCOC | 0.023 | 0.00292 | 8.01 | 0.0663 | 5.61 | 21.6 | 8.35 |  |  |  |  |  |  |  |
| COc1cc2ncnc(Nc3cc(C(=O)NC45CC6CC(CC(C6)C4)C5)ccc3C)c2cc1OCCCN1CCOCC1 | 0.014 | 0.0154 | 6.73 | 0.0327 | 5.74 | 17.1 | 9.04 |  |  |  |  |  |  |  |
| COc1cc2ncnc(Nc3ccc(C(=O)NC45CC6CC(CC(C6)C4)C5)cc3)c2cc1OCCCN1CCOCC1 | 0.009 | 0.00201 | 6.11 | 0.0054 | 27.9 | > 40 | 12 | 160 |  |  |  |  |  |  |
| COCCOc1cc2ncnc(Nc3ccc(NC(=O)C45CC6CC(CC(C6)C4)C5)c(OC)c3)c2cc1OCCOC | > 0.04 | 0.00594 | 7.62 | 0.0108 | 6.62 | 33.1 | 5.19 |  |  |  |  |  |  |  |
| COCCOc1cc2ncnc(Nc3ccc(NC(=O)C45CC6CC(CC(C6)C4)C5)cc3C)c2cc1OCCOC | 0.025 | 0.00452 | 4.58 | 0.0165 | 4.73 | 16.6 | 5.34 |  |  |  |  |  |  |  |
| COCCOc1cc2ncnc(Nc3cccc(NC(=O)C45CC6CC(CC(C6)C4)C5)c3)c2cc1OCCOC | 0.03 | 0.00163 | 3.99 | 0.0145 | 9.52 | 18.8 | 11.2 |  |  |  |  |  |  |  |
| COc1cc2ncnc(Nc3ccc(C(=O)NC45CC6CC(CC(C6)C4)C5)c(Cl)c3)c2cc1OCCCN1CCOCC1 | 0.009 | 0.00642 | 2.65 | 0.00462 | 2.06 | 5.89 | 5.48 | 160 | Non-toxic | Active | Non-toxic | 5 | Dose-dependent effect | Non-toxic |
| COCCOc1cc2ncnc(Nc3ccc(C(=O)NC45CC6CC(CC(C6)C4)C5)cc3)c2cc1OCCOC | 0.038 | 0.00961 | 3.42 | 0.00602 | 1.02 | 12.4 | 1.25 | 160 | Non-toxic | Active | Non-toxic |  | Dose-dependent effect | Non-toxic |
| COc1cc2ncnc(Nc3ccc(C(=O)NC45CC6CC(CC(C6)C4)C5)c(C#N)c3)c2cc1OCCCN1CCOCC1 | 0.02 | 0.00471 | 5.94 | 0.00571 | 3.39 | 26.2 | 11.6 | 160 |  |  |  |  |  |  |
| COc1cc2ncnc(Nc3cccc(NC(=O)C45CC6CC(CC(C6)C4)C5)c3)c2cc1OCCCN1CCOCC1 | 0.035 | 0.00311 | 8.86 | 0.159 | 15.9 | 35.9 | 9.94 |  |  |  |  |  |  |  |
| COc1cc2ncnc(Nc3cccc(C(=O)NC45CC6CC(CC(C6)C4)C5)c3)c2cc1OCCCN1CCOCC1 | 0.02 | 0.00112 | 11.6 | 0.0115 | 10.5 | 31 | 23.6 |  |  |  |  |  |  |  |
| COCCOc1cc2ncnc(Nc3ccc(NC(=O)C45CC6CC(CC(C6)C4)C5)c(C#N)c3)c2cc1OCCOC | > 0.04 | 0.00501 | 7.74 | 0.0104 | 4.51 | 38.3 | 5.64 |  |  |  |  |  |  |  |

— ChEMBL document CHEMBL3763063, “Novel 4-anilinoquinazoline derivatives featuring an 1-adamantyl moiety as potent EGFR inhibitors with enhanced activity against NSCLC cell lines” (Eur J Med Chem, 2016)
